Test system: Human skin fibroblasts
Assay: Direct transformation from human fibroblast to brown adipocyte (Example B)
Assay type: cell-based
Parameters: key: the mark “++++” indicates that almost all of the fibroblasts were transformed into brown adipocytes; +++: the larger the number of the marks “+” is, the higher the transformation efficiency is; ++: the larger the number of the marks “+” is, the higher the transformation efficiency is; the larger the number of the marks “+” is, the higher the transformation efficiency is; The mark “−” indicates that the fibroblasts were not transformed into brown adipocytes
Conditions: fibroblast of subject; judged from UCP1 immunostaining and cell states, FIG. 4 to FIG. 8
Description: Human skin fibroblasts were purchased from DS Pharma Biomedical Co., Ltd. Cell information is described in the following table.
About 1.5×10^5 cells were seeded on a 35 mm dish containing a high-glucose DMEM medium (11995-065, Gibco, MA, USA) to which 10% fetal bovine serum (FBS) (HyClone, Utah, USA) and penicillin/streptomycin (Gibco) were added.
After each of the human fibroblasts reached 80-90% confluence, the medium was changed to start direct transformation into the brown adipocyte. The adipocyte medium for use was prepared by adding an additive reagent containing ascorbic acid, biotin, pantothenic acid, triiodothyronine, octanoic acid, insulin, dexamethasone, IBLMX (3-isobutyl-1-methylxanthine), FBS and penicillin/streptomycin (MK425, Takara Bio Inc.) to a high-glucose DMEM medium (043-30085, Wako Pure Chemical Industries, Ltd.). […]
Immunocytochemistry was performed in accordance with a previous report (Dai P, et al. J Clin Biochem Nutr. 2015; 56 (3): 166-70). […] All images were acquired using a fluorescence microscope (Axio Vert. A1, Carl Zeiss, Oberkochen, Germany). […]
The efficiencies of transformation into the adipocyte-like cells with various combinations of the compounds were evaluated from the results shown in FIG. 4 to FIG. 8, and the results are shown in the following table. […]

CN(CCOc1ccc(CC2SC(=O)NC2=O)cc1)c1ccccn1 (stereo not shown) [Ro only, Rosiglitazone]
Efficiency (transformation into the adipocyte-like cells): −

From US11459546B2, “Method for producing somatic cell, somatic cell, and composition” (Kyoto Prefectural Public University Corporation, priority 2016, dated 2022)
